Read-outs that look alike come from different tables or passages of the source.
Key:
[1] = system: K-562; test: NCI 60-cell line growth inhibition assay, K-562; format: cell-based, human
Description: (§1) The following data in Table 4 summarize the growth inhibition properties of several compounds of the present invention against 60-human transformed cell lines.

[2] = system: PC-3; test: NCI 60-cell line growth inhibition assay, PC-3; format: cell-based, human; conditions: Prostate
Description: as §1

[3] = system: HCT-15; test: NCI 60-cell line growth inhibition assay, HCT-15; format: cell-based, human; conditions: Colon
Description: as §1

[4] = system: SF-268; test: NCI 60-cell line growth inhibition assay, SF-268; format: cell-based, human; conditions: CNS
Description: as §1

[5] = system: SN12C; test: NCI 60-cell line growth inhibition assay, SN12C; format: cell-based, human; conditions: Renal
Description: as §1

[6] = system: SR; test: NCI 60-cell line growth inhibition assay, SR; format: cell-based, human; conditions: Leukemia
Description: as §1

[7] = system: NCI/ADR-RES; test: NCI 60-cell line growth inhibition assay, NCI/ADR-RES; format: cell-based, human; conditions: Breast
Description: as §1

[8] = system: NCI-H226; test: NCI 60-cell line growth inhibition assay, NCI-H226; format: cell-based, human; conditions: Non-Small Cell Lung
Description: as §1

[9] = system: ACHN; test: NCI 60-cell line growth inhibition assay, ACHN; format: cell-based, human; conditions: Renal
Description: as §1

[10] = system: HS 578T; test: NCI 60-cell line growth inhibition assay, HS 578T; format: cell-based, human; conditions: Breast
Description: as §1

[11] = system: RPMI-8226; test: NCI 60-cell line growth inhibition assay, RPMI-8226; format: cell-based, human
Description: as §1

[12] = system: LOX IMVI; test: NCI 60-cell line growth inhibition assay, LOX IMVI; format: cell-based, human; conditions: Melanoma
Description: as §1

[13] = system: U251; test: NCI 60-cell line growth inhibition assay, U251; format: cell-based, human
Description: as §1

[14] = system: RXF 393; test: NCI 60-cell line growth inhibition assay, RXF 393; format: cell-based, human; conditions: Renal
Description: as §1

[15] = system: IGROV1; test: NCI 60-cell line growth inhibition assay, IGROV1; format: cell-based, human
Description: as §1

[16] = system: OVCAR-8; test: NCI 60-cell line growth inhibition assay, OVCAR-8; format: cell-based, human; conditions: Ovarian
Description: as §1

[17] = system: SF-295; test: NCI 60-cell line growth inhibition assay, SF-295; format: cell-based, human; conditions: CNS
Description: as §1

[18] = system: MCF-7 human breast carcinoma line; test: MCF-7 GI50 determination (crystal violet); format: cell-based; conditions: MCF-7, 4 days of treatment, crystal violet, read-out: MCF-7 Cells GI50
Protocol: Growth inhibition (GI50) values were measured on the human breast carcinoma line, MCF-7. MCF-7 cells were plated at 2×10^4 cells/well in 96 well plates and grown for 24 hours in drug free media. On day 2, test compounds were added to the plates at 10-fold dilutions. Four days later, cells were fixed by the addition of glutaraldehyde to 0.75%. After 30 min, the fixed cells were extensively rinsed with distilled water and dried at room temperature for one hour. The cells were then stained with a 0.2% crystal violet solution for one hour at room temperature. Unbound stain was removed by ten rinses with tap water and plates were allowed to air dry for 30 min. The crystal violet was then solubilized by the addition of 10% acetic acid for 15 min and quantified by measuring absorbance at 570 nm on a Molecular Devices microplate reader. Growth inhibition was calculated according to the following equation: GI=[…], where the optical density (OD) of the test well after 4 days of treatment was T, the OD of the wells in the control plate on day 0 was T0. Plots of percent growth inhibition versus inhibitor concentration were used to determine the GI50.

[19] = system: A549/ATCC; test: NCI 60-cell line growth inhibition assay, A549/ATCC; format: cell-based, human; conditions: Non-Small Cell Lung
Description: as §1

[20] = system: MDA-MB-435; test: NCI 60-cell line growth inhibition assay, MDA-MB-435; format: cell-based, human; conditions: Breast
Description: as §1

[21] = system: SK-MEL-2; test: NCI 60-cell line growth inhibition assay, SK-MEL-2; format: cell-based, human; conditions: Melanoma
Description: as §1

[22] = system: HeLa S-3 human cervical carcinoma cell line; test: HeLa GI50 determination (SRB); format: cell-based; conditions: HeLa S-3, 2 days of treatment, SRB, read-out: HeLa Cells GI50
Protocol: Growth inhibition (GI50) values were measured on the human cervical carcinoma cell line, HeLa S-3, which were selected for growth on plastic. The HeLa cell assay was based on the description of Skehan et al., J. Natl. Cancer Inst., 82:1107-12 (1990), which is hereby incorporated by reference in its entirety. HeLa cells were plated at 2×10^4 cells/well in 96 well plates. One day later, a control plate was fixed by the addition of TCA to 5%. After five rinses with tap water, the plate was air-dried and stored at 4° C. Test compounds were added to the remaining plates at 10-fold dilutions. Two days later, all plates were fixed as described above. Cells were then stained by the addition of 100 μL per well of 0.4% sulforhodamine B (SRB) in 1% acetic acid for 30 min at 4° C. Wells were then quickly rinsed 5× with 1% acetic acid and allowed to air dry. The SRB was then solubilized by the addition of 100 μL per well of unbuffered 10 mM Tris base. Dye was quantified by measuring absorbance at 490 nm on a Molecular Devices microplate reader. Growth inhibition was calculated according to the following equation: GI=100×(T−T0)/(C−T0), where the optical density (OD) of the test well after 2 days of treatment was T, the OD of the wells in the control plate on day 0 was T0 and C was the OD of untreated wells. Plots of percent growth inhibition versus inhibitor concentration were used to determine the GI50.

[23] = system: UO-31; test: NCI 60-cell line growth inhibition assay, UO-31; format: cell-based, human; conditions: Renal
Description: as §1

[24] = system: HOP-92; test: NCI 60-cell line growth inhibition assay, HOP-92; format: cell-based, human; conditions: Non-Small Cell Lung
Description: as §1

[25] = system: SW-620; test: NCI 60-cell line growth inhibition assay, SW-620; format: cell-based, human; conditions: Colon
Description: as §1

[26] = system: HT29; test: NCI 60-cell line growth inhibition assay, HT29; format: cell-based, human
Description: as §1

[27] = system: MDA-MB-231/ATCC; test: NCI 60-cell line growth inhibition assay, MDA-MB-231/ATCC; format: cell-based, human; conditions: Breast
Description: as §1

[28] = system: NCI-H23; test: NCI 60-cell line growth inhibition assay, NCI-H23; format: cell-based, human; conditions: Non-Small Cell Lung
Description: as §1

[29] = system: SF-539; test: NCI 60-cell line growth inhibition assay, SF-539; format: cell-based, human; conditions: CNS
Description: as §1

[30] = system: NCI-H460; test: NCI 60-cell line growth inhibition assay, NCI-H460; format: cell-based, human; conditions: Non-Small Cell Lung
Description: as §1

[31] = system: UACC-257; test: NCI 60-cell line growth inhibition assay, UACC-257; format: cell-based, human; conditions: Melanoma
Description: as §1

[32] = system: DU-145; test: NCI 60-cell line growth inhibition assay, DU-145; format: cell-based, human; conditions: Prostate
Description: as §1

[33] = system: KM12; test: NCI 60-cell line growth inhibition assay, KM12; format: cell-based, human; conditions: Colon
Description: as §1

[34] = system: CCRF-CEM; test: NCI 60-cell line growth inhibition assay, CCRF-CEM; format: cell-based, human; conditions: Leukemia
Description: as §1

## CCC1=C[C@H]2CN(C1)Cc1c([nH]c3ccc(I)cc13)[C@@](C(=O)OC)(c1cc3c(cc1OC)N(C)[C@H]1[C@@](O)(C(=O)OC)[C@H](OC(C)=O)C4C(CC)=CCN5CC[C@]31[C@H]45)C2 (stereo partly drawn) [Example 2, 11′-iodovinorelbine]
[1]; Homo sapiens, K562, Leukemia
  GI50: 12.4 nM
[2]; Homo sapiens
  GI50: 57.3 nM
[3]; Homo sapiens
  GI50: 1070 nM
[4]; Homo sapiens
  GI50: 78.8 nM
[5]; Homo sapiens
  GI50: 70.8 nM
[6]; Homo sapiens
  GI50: 26.1 nM
[7]; Homo sapiens
  GI50: 5280 nM
[8]; Homo sapiens
  GI50: 83.3 nM
[9]; Homo sapiens
  GI50: 1430 nM
[10]; Homo sapiens
  GI50: 19.2 nM
[11]; Homo sapiens, Leukemia
  GI50: 16.7 nM
[12]; Homo sapiens
  GI50: 31.3 nM
[13]; Homo sapiens, U-251, CNS
  GI50: 42.3 nM
[14]; Homo sapiens
  GI50: 0.0605 µM
[15]; Homo sapiens, IGROV-1, Ovarian
  GI50: 32.4 nM
[16]; Homo sapiens
  GI50: 51.7 nM
[17]; Homo sapiens
  GI50: 27 nM
[18]; Homo sapiens, MCF7, 96 h
  GI50: 7 nM
[19]; Homo sapiens
  GI50: 58.6 nM
[20]; Homo sapiens
  GI50: 1370 nM
[21]; Homo sapiens
  GI50: 1400 nM
[22]; Homo sapiens, HeLa S3, 48 h
  GI50: 25 nM
[23]; Homo sapiens
  GI50: 674 nM
[24]; Homo sapiens
  GI50: 2250 nM
[25]; Homo sapiens
  GI50: 37.8 nM
[26]; Homo sapiens, HT-29, Colon
  GI50: 10.3 nM
[27]; Homo sapiens
  GI50: 77.2 nM
[28]; Homo sapiens
  GI50: 52.8 nM
[29]; Homo sapiens
  GI50: 37.9 nM
[30]; Homo sapiens
  GI50: 43.2 nM
[31]; Homo sapiens
  GI50: 3.43 µM
[32]; Homo sapiens
  GI50: 25.7 nM
[33]; Homo sapiens
  GI50: 92.7 nM
[34]; Homo sapiens
  GI50: 37.9 nM

## 11′-bromovinorelbine [Example 1]
[1]; Leukemia
  GI50: < 10 nM
[2]
  GI50: < 10 nM
[3]
  GI50: < 10 nM
[4]
  GI50: < 10 nM
[5]
  GI50: < 10 nM
[6]
  GI50: > 100000 nM
[7]
  GI50: 152 nM
[8]
  GI50: < 10 nM
[9]
  GI50: 3230 nM
[10]
  GI50: 679 nM
[11]
  GI50: < 10 nM
[11]; Leukemia
  GI50: < 10 nM
[12]
  GI50: < 10 nM
[13]; CNS
  GI50: < 10 nM
[14]
  GI50: 10.3 µM
[15]; Ovarian
  GI50: < 10 nM
[16]
  GI50: < 10 nM
[17]
  GI50: < 10 nM
[18]
  GI50: 3 nM
[19]
  GI50: < 10 nM
[20]
  GI50: < 10 nM
[21]
  GI50: < 10 nM
[22]
  GI50: 5 nM
[23]
  GI50: < 10 nM
[24]
  GI50: 1240 nM
[25]
  GI50: < 10 nM
[26]; Colon
  GI50: < 10 nM
[27]
  GI50: < 10 nM
[28]
  GI50: < 10 nM
[29]
  GI50: < 10 nM
[30]
  GI50: < 10 nM
[31]
  GI50: 5.73 µM
[32]
  GI50: < 10 nM
[33]
  GI50: < 10 nM
[34]
  GI50: < 10 nM

— US7842802B2, “Vinorelbine derivatives” (priority 2003, dated 2010)
